This note sets out measurements from PubChem BioAssay (NCI).

Test systems include ACHN renal; DU-145 prostate; HOP-92 NSCLC; NCI-H23 lung; OVCAR-4 ovarian; OVCAR-8 ovarian; SK-MEL-5 melanoma; SN12C renal; SW-620 colon; U251 CNS.
Experiment in all cases: NCI-60 cell line screen, 48 h

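Values below derive from 48-hour exposures of cells grown in 96-well plates, with endpoints linearly interpolated between the two concentrations bracketing the appropriate inhibition level. Here, GI50 denotes the concentration required for 50% inhibition of growth. TGI: concentration producing complete growth inhibition.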

Take `COC(=O)C1=C(C(=O)ON)[C@@H]2C=C[C@@]1([C@@H](Cc1ccccc1)Nc1ccccc1)O2`: the GI50 in the assay with ACHN renal is 1670 nM; in the assay on DU-145 prostate it was 1840 nM; in the assay with HOP-92 NSCLC it was 1500 nM; in the assay on NCI-H23 lung, 14100 nM; in the assay on OVCAR-4 ovarian, 1620 nM; with OVCAR-8 ovarian, 14400 nM. The GI50 was 14700 nM in the assay on SK-MEL-5 melanoma, 1870 nM with SN12C renal, 1800 nM in the assay on SW-620 colon and 14300 nM with U251 CNS. Moreover, the TGI came out at 3040 nM with ACHN renal; 3670 nM in the assay with DU-145 prostate; 2880 nM in the assay on HOP-92 NSCLC; 28900 nM with NCI-H23 lung; 3040 nM with OVCAR-4 ovarian; 27900 nM with OVCAR-8 ovarian. The TGI was 27800 nM in the assay with SK-MEL-5 melanoma, 3690 nM in the assay on SN12C renal, 3510 nM in the assay on SW-620 colon and 27600 nM in the assay on U251 CNS.
As for `CC[C@H]1CCC/C=C/[C@@H]2C[C@H](O)C[C@H]2[C@H](O)/C=C/C(=O)O1`, the GI50 was 44.3 nM in the assay with ACHN renal; 179 nM in the assay with DU-145 prostate; 157 nM with HOP-92 NSCLC; 41.4 nM in the assay with NCI-H23 lung; 36.1 nM in the assay with OVCAR-4 ovarian; 43.2 nM in the assay on OVCAR-8 ovarian. Further, the GI50 in the assay with SK-MEL-5 melanoma was 16.6 nM; in the assay with SN12C renal it was 53 nM; in the assay on SW-620 colon, 31.3 nM; in the assay on U251 CNS it was 44.3 nM. Also, the TGI in the assay on ACHN renal is > 100000 nM; in the assay with DU-145 prostate, > 100000 nM; in the assay on HOP-92 NSCLC, > 100000 nM; with NCI-H23 lung, 5230 nM; in the assay on OVCAR-8 ovarian, > 100000 nM; in the assay on SK-MEL-5 melanoma, 32.8 nM. Further, the TGI was > 100000 nM in the assay with SN12C renal, 517 nM in the assay on SW-620 colon and > 100000 nM in the assay with U251 CNS.
Take `O=c1cc(-c2ccccc2)oc2c1ccc1ccccc12`: the GI50 is 17600 nM with ACHN renal; 30600 nM in the assay on DU-145 prostate; 9250 nM in the assay with HOP-92 NSCLC; 32600 nM in the assay on NCI-H23 lung; 21200 nM in the assay on OVCAR-4 ovarian; 26000 nM in the assay with OVCAR-8 ovarian. For the same compound, the GI50 was 20200 nM with SK-MEL-5 melanoma, 19600 nM with SN12C renal, 49200 nM in the assay on SW-620 colon and 17100 nM with U251 CNS. Moreover, the TGI with ACHN renal was 90000 nM; in the assay on DU-145 prostate, > 100000 nM; in the assay with HOP-92 NSCLC it was 45500 nM; in the assay on NCI-H23 lung, > 100000 nM; with OVCAR-4 ovarian it was > 100000 nM; with OVCAR-8 ovarian it was > 100000 nM. The TGI is 65300 nM with SK-MEL-5 melanoma, > 100000 nM with SN12C renal, > 100000 nM with SW-620 colon and > 100000 nM with U251 CNS.
With `CC1(C)CCc2c(c(N=Nc3ccccc3F)c3ccccc3c2O)O1`, the GI50 in the assay on ACHN renal was 22000 nM; with DU-145 prostate, 87500 nM; in the assay on HOP-92 NSCLC, 92600 nM; in the assay on NCI-H23 lung it was 16800 nM; in the assay on OVCAR-4 ovarian, 66200 nM; in the assay on OVCAR-8 ovarian, 23300 nM. In addition, the GI50 in the assay with SK-MEL-5 melanoma was 52600 nM; in the assay with SN12C renal, 22700 nM; with SW-620 colon, 32800 nM; in the assay on U251 CNS, 19400 nM. In addition, the TGI is 52500 nM in the assay with ACHN renal; > 100000 nM with DU-145 prostate; > 100000 nM in the assay with HOP-92 NSCLC; 58600 nM with NCI-H23 lung; > 100000 nM in the assay on OVCAR-4 ovarian; 51400 nM with OVCAR-8 ovarian. Also, the TGI in the assay with SK-MEL-5 melanoma was > 100000 nM; in the assay on SN12C renal it was 53100 nM; in the assay with SW-620 colon it was > 100000 nM; in the assay on U251 CNS, 37000 nM.
As for `COc1ccc(CNCCCN2C(=O)c3ccc4c5c(ccc(c35)C2=O)C(=O)N(CCCNCc2ccc(OC)c(OC)c2OC)C4=O)c(OC)c1OC`, the GI50 in the assay on ACHN renal is 107 nM; in the assay on DU-145 prostate, 93 nM; in the assay with HOP-92 NSCLC, 108 nM; in the assay with NCI-H23 lung it was 93.6 nM; in the assay on OVCAR-4 ovarian, 59.9 nM; with OVCAR-8 ovarian, 91.4 nM. Besides, the GI50 was 79.2 nM in the assay on SK-MEL-5 melanoma, 82.1 nM with SN12C renal, 93.2 nM in the assay on SW-620 colon and 87.9 nM in the assay with U251 CNS. For the same compound, the TGI in the assay on ACHN renal was 257 nM; in the assay on DU-145 prostate, 185 nM; in the assay with HOP-92 NSCLC, 328 nM; in the assay on NCI-H23 lung it was 201 nM; with OVCAR-4 ovarian it was 127 nM; in the assay on OVCAR-8 ovarian, 242 nM. Moreover, the TGI in the assay on SK-MEL-5 melanoma amounted to 147 nM; with SN12C renal, 157 nM; in the assay on SW-620 colon, 225 nM; in the assay with U251 CNS, 174 nM.
As to `COc1ccc(-c2cc(-c3ccc(OC)cc3)nc(NCCCNc3ccnc4cc(Cl)ccc34)n2)cc1`, the GI50 in the assay on ACHN renal is 1820 nM; with DU-145 prostate it was 1880 nM; in the assay with HOP-92 NSCLC it was 1240 nM; in the assay on NCI-H23 lung it was 1800 nM; in the assay on OVCAR-4 ovarian, 1650 nM; in the assay on OVCAR-8 ovarian, 1810 nM. Besides, the GI50 with SK-MEL-5 melanoma was 1540 nM; in the assay on SN12C renal, 1710 nM; in the assay with SW-620 colon it was 1690 nM; in the assay on U251 CNS, 1600 nM. For the same compound, the TGI in the assay with ACHN renal is 3220 nM; in the assay with DU-145 prostate it was 3380 nM; in the assay on HOP-92 NSCLC it was 2640 nM; in the assay with NCI-H23 lung, 3720 nM; in the assay on OVCAR-4 ovarian it was 3350 nM; in the assay on OVCAR-8 ovarian, 3570 nM. Further, the TGI is 2890 nM in the assay with SK-MEL-5 melanoma, 3340 nM in the assay with SN12C renal, 3340 nM with SW-620 colon and 3000 nM in the assay on U251 CNS.
Regarding `CCOC(=O)c1c2c(n3ccc(NC(=O)CCN4CCCCC4)cc13)C(=O)c1ncccc1C2=O`, the GI50 is < 10 nM in the assay with ACHN renal; 1200 nM with DU-145 prostate; 9630 nM with HOP-92 NSCLC; 36.9 nM in the assay on NCI-H23 lung; 1420 nM with OVCAR-4 ovarian; 1280 nM in the assay with OVCAR-8 ovarian. Also, the GI50 with SK-MEL-5 melanoma is 541 nM; with SN12C renal, 111 nM; in the assay with SW-620 colon it was 26.9 nM; with U251 CNS it was 1090 nM. For the same compound, the TGI in the assay on ACHN renal is 1510 nM; in the assay on DU-145 prostate, 2540 nM; in the assay on HOP-92 NSCLC it was 24600 nM; with NCI-H23 lung it was 2030 nM; in the assay with OVCAR-4 ovarian, 3560 nM; in the assay on OVCAR-8 ovarian it was 3710 nM. In addition, the TGI with SK-MEL-5 melanoma worked out at 1980 nM; in the assay on SN12C renal, 2330 nM; in the assay with SW-620 colon, 2380 nM; in the assay with U251 CNS, 2470 nM.
